Converted amounts (≈) assume the structure as drawn.

Data set [1] relates to exercise capacity and recovery. Description: case report: exercise performance and recovery of a subject who regularly trains (treadmill, arm curls test, soreness). Type of data set: in vivo, human. The conditions noted are these: for arm curls test: maximum number of bicep curl repetitions in 30 seconds: 40 lb dumbbell; for arm curls test: maximum number of bicep curl repetitions in 30 seconds / time to exhaustion on the treadmill: 1 gram doses the day/night before and 1 hour before training; for time to recovery (measured by muscle soreness and discomfort): after training; for time to exhaustion on the treadmill: Ifit treadmill, 0 elevation, 5 miles per hour.

Data set [2] can be described thus: solubility of 2 g in 200 ml saturated citric acid solution (pH=3), filtration, visual. To be noted: for appearance of liquid that passed through the filter: 2 grams in 200 ml saturated citric acid solution. From the text:
The resulting acidic solution was then passed out by a filter. […]

Data set [3] deals with chronic knee and shoulder pain. Description: case report: oral ingestion by a person with chronic knee and shoulder pain. The conditions noted are these: 1 gram twice per day. In kind it is in vivo, human.
Data set [4] is described as follows: dissolution of 1 g powder in 100 ml water, visual, with and without stirring, centrifugation and filtration. The conditions noted are these: for appearance of filtrate / solid left on the filter paper: centrifuged at 1000 rpm for 10 seconds, filtered; for visible dissolution in water without stirring: not stirred, one minute (phenoxide), 10 minutes (curcumin); for solubility in water (visual): FIG. 6 (0.5 g in 50 ml), FIGS. 7 and 8 (1 g in 100 ml).

The conditions of data set [5]: standard conditions; cited from earlier work.
For data set [6] the following is noted: in vivo; cited from earlier work.
For data set [7] the following is noted: Lu et al. 2020, cited from earlier work.

With `COc1cc(/C=C/C(=O)/C=C(O)/C=C/c2ccc(O)c(OC)c2)ccc1O.N.N` [ammonium phenoxide of curcumin], in data set [1], the “arm curls test: maximum number of bicep curl repetitions in 30 seconds” value is 14 repetitions. Also, in data set [1] (person), the “effect on exercise capacity and recovery (summary)” value was “increased their exercise capacity and reduced the needed time for recovery”; the “time to recovery (measured by muscle soreness and discomfort)” value was 1 days; the “time to exhaustion on the treadmill” value was 15.5 min. For the same molecule, in data set [1] (person, day after training), the “soreness the day after training” value was “noticeably lower”. Moreover, the “appearance of liquid that passed through the filter” value in data set [2] is “characteristic orange color of curcumin”. In data set [2] (saturated citric acid solution), the “solubility at acidic pH (conclusion)” value is on record as “increased solubility”. Moreover, in data set [3], the “onset of improvement in symptoms” value was “on the second day”. Moreover, the “pain reduction during the next 30 days” value in data set [3] (30 days) is recorded as “continued showing improvement”. Also, in data set [4] (1 g in 100 ml water), the appearance of filtrate result is reported as “the color of curcumin”, the “solid left on the filter paper” value is reported as “no solid matter was left on the filter paper” and the “visible dissolution in water without stirring” value is listed as “visible at one minute”. In addition, the “time for all 1 gram to be dissolved in 100 ml of water” value in data set [4] (stirring at 1200 rpm with a magnetic stirrer) is listed as “less than 10 seconds”. Besides, the “solubility in water (visual)” value in data set [4] is reported as “a lot more water-soluble”.
As usually defined, the half-life is the time needed for the level to fall by half in the phase considered. Consider `COc1cc(/C=C/C(=O)CC(=O)/C=C/c2ccc(O)c(OC)c2)ccc1O` [curcumin], for which the solubility in ethanol in data set [5] is 1000 µg/mL (≈ 2710 µM). Also, the “arm curls test: maximum number of bicep curl repetitions in 30 seconds” value in data set [1] came to 11 repetitions. Besides, in data set [1] (person), the “effect on exercise capacity and recovery (summary)” value was “no effect”; the “time to recovery (measured by muscle soreness and discomfort)” value came out at 2 days; the “time to exhaustion on the treadmill” value turned out to be 13 min. In addition, in data set [6], the half-life was about 7 h. For the same molecule, the “appearance of liquid that passed through the filter” value in data set [2] is “totally clear”. Moreover, in data set [7] (Phosphate buffer), the “solubility in Phosphate buffer” value was 0.310 µg/mL (≈ 0.842 µM). Besides, in data set [7] (water), the solubility in water was 1.622 µg/mL (≈ 4.4 µM). Besides, in data set [4] (1 g in 100 ml water), the appearance of filtrate result was “clear and lacked color”; the “solid left on the filter paper” value was “all of the curcumin powder was left on the filter paper”; the “visible dissolution in water without stirring” value is given as “no visible sign of curcumin dissolving in water”. For the same molecule, in data set [4] (1 g in 100 ml water, stirring 1200 rpm), the “solubility in water with stirring” value is “no solubility even with stirring”. For the same molecule, the “solubility in water (visual)” value in data set [4] was “low solubility”.
